From patent US5618793A, “Nikkomycin analogs” (Schering Corporation, priority 1995, dated 1997) come the findings set out here.

Molecules are shown by their SMILES. Values after ≈ are worked out from the molar mass of the structure shown. Read-outs that look alike come from different tables or passages of the source.

Assay [1] relates to Sensitive Strains: Candida albicans C141, Candida sp. C2, Candida sp. C109, Candida parapsilosis C67, Candida tropicalis C112, Torulopsis glabrata C95, Candida …. The class given is cell-based, Candida spp., Sacchararomyces. The following applies: geometric mean of MICs against sensitive strains, YNB pH 5.4, 37° C., 48 hours, lowest concentration preventing visible growth. As to the method: (§1) In vitro anti-fungal activity was determined in microtiter minimum inhibitory concentration (MIC) tests using Yeast Nitrogen Broth (YNB without amino acids, Difco., Detroit, Mich.) at pH 5.4. Yeasts were grown overnight in Sabouraud Dextrose Broth at 28° C. with shaking, and concentrations adjusted in sterile saline using a spectrophoptometer at 540 mμ. Compounds were dissolved in various vehicles and diluted in media to twice the final concentrations. The Cetus Pro/Pette system was used to serially dilute 50 μl in round bottom 96 well plates (Falcon, Lincoln Park, N.J.). The turbidometrically adjusted yeast suspensions were diluted 1:3,000 in YNB. These dilutions when added to the wells, produced a final inoculum of 3×10^3 /ml. Plates were incubated at 37° C. for 48 hours. MICs were defined as the lowest concentrations of compound that prevented visible growth. MICs were taken against the following organisms and expressed in the table above as the geometric mean.
(§2) MIC-R and MIC-S mean respectively MICs taken against resistant and sensitive strains.
Candida parapsilosis C67
Candida tropicalis C112
Torulopsis glabrata C95
Candida pseudotropicalis C967
Candida guillermondii C137
Sacchararomyces mutant C147

Assay [2] concerns Resistant Strains: Candida albicans C79, C6, C8, C31, C54, C70, C104, C138, C140; Candida stellatoidea C45. Nature of the assay: microtiter minimum inhibitory concentration (MIC) test, resistant strains (MIC-R). The class given is cell-based. The following applies: geometric mean of MICs against resistant strains, YNB pH 5.4, 37° C., 48 hours, lowest concentration preventing visible growth. How it is done:
as §1, §2
Candida stellatoidea C45

The compound `CCCCCCCCCCCCNC(=O)C(NC(=O)[C@@H](N)C(C)Cc1ccc(OC)cc1)C1OC(n2ccc(=O)[nH]c2=O)C(O)C1O` (some centres unmarked) [Compound 12, 6'-Dodecylamido-5-N-(2-S-amino-3-R,S-methyl-4-p-methoxyphenyl-butyryl) UPOC] registered an MIC-S in assay [1] of 208 µg/mL (≈ 315 µM). Also, in assay [2], the MIC-R came to 28 µg/mL (≈ 42.4 µM).

In turn, `CCCCCCCCCCCCNC(=O)C(NC(=O)C(N)CCc1ccc2ccccc2n1)C1OC(n2ccc(=O)[nH]c2=O)C(O)C1O` (centres unmarked) [Compound 16] had an MIC-S in assay [1] (listed as drawing 72) of 239 µg/mL (≈ 358 µM). The compound further returned an MIC-R in assay [2] (listed as drawing 72) of 294 µg/mL (≈ 441 µM).

In turn, `CCCCCCCCCCCCNC(=O)C(NC(=O)C(N)Cc1c[nH]c2ccc(O)cc12)C1OC(n2ccc(=O)[nH]c2=O)C(O)C1O` (centres unmarked) [Compound 3, 6'-Dodecylamido-5-N-(5-hydroxytryptophanyl)UPOC] showed an MIC-S in assay [1] of 478 µg/mL (≈ 728 µM). For the same compound, the MIC-R in assay [2] was 23 µg/mL (≈ 35 µM).

Compound `CCCCCCCCCCCCN(OCc1ccccc1)C(=O)C(NC(=O)C(N)Cc1c[nH]c2ccc(O)cc12)C1OC(n2ccc(=O)[nH]c2=O)C(O)C1O` (centres unmarked) [Compound 14] displayed an MIC-S in assay [1] of 119 µg/mL (≈ 156 µM). In addition, the MIC-R in assay [2] was 28 µg/mL (≈ 36.7 µM).

In assay [1], `CCCCNC(=O)[C@@H](NC(=O)[C@@H](N)Cc1c[nH]c2ccc(O)cc12)[C@H]1O[C@@H](n2ccc(=O)[nH]c2=O)[C@H](O)[C@@H]1O` [Compound 1] showed an MIC-S of over 4096 µg/mL. The same compound returned an MIC-R in assay [2] of over 4096 µg/mL.

In turn, `CCCCCCCCCCCCCCCCCCNC(=O)C(NC(=O)C(N)Cc1c[nH]c2ccc(O)cc12)C1OC(n2ccc(=O)[nH]c2=O)C(O)C1O` (centres unmarked) [Compound 4] yielded an MIC-S in assay [1] of over 2048 µg/mL. This compound had an MIC-R in assay [2] of over 2048 µg/mL.

Compound `CCCCCCCCCCCCNC(=O)C(NC(=O)C(N)Cc1cn(C)c2ccccc12)C1OC(n2ccc(=O)[nH]c2=O)C(O)C1O` (centres unmarked) [Compound 25] showed an MIC-S in assay [1] of over 256 µg/mL. The compound further had an MIC-R in assay [2] of over 256 µg/mL.

`CCCCCCCCCCCCNC(=O)C(NC(=O)C(N)C(C)Cn1ccnc1)C1OC(n2ccc(=O)[nH]c2=O)C(O)C1O` (mixture of isomers) [Compound 11]: in assay [1], the MIC-S stood at 85 µg/mL. The MIC-R in assay [2] is 316 µg/mL.

Take `CCCCCCCCCCCCNC(=O)C(NC(=O)C(N)Cc1csc2ccc(O)cc12)C1OC(n2ccc(=O)[nH]c2=O)C(O)C1O` (single isomer, unassigned) [Compound 21]: in assay [1], the MIC-S came to 158 µg/mL (≈ 234 µM). Besides, the MIC-R in assay [2] came out at 208 µg/mL (≈ 309 µM).

In turn, `CCCCCCCCCCCCNC(=O)C(NC(=O)C(N)c1ccccc1)C1OC(n2ccc(=O)[nH]c2=O)C(O)C1O` (centres unmarked) [Compound 24] gave an MIC-S in assay [1] of 194 µg/mL (≈ 330 µM). In addition, the MIC-R in assay [2] turned out to be 18 µg/mL (≈ 30.6 µM).

As for `CCCCCCCCCCCCCCNC(=O)C(NC(=O)C(N)Cc1c[nH]c2ccc(O)cc12)C1OC(n2ccc(=O)[nH]c2=O)C(O)C1O` (centres unmarked) [Compound 9], the MIC-S in assay [1] is 147 µg/mL (≈ 215 µM). In assay [2], the MIC-R is over 256 µg/mL.

In turn, `CCCCCCCCCCCCNC(=O)C(NC(=O)C(N)Cc1ccc(OC)cc1)C1OC(n2ccc(=O)[nH]c2=O)C(O)C1O` (centres unmarked) [Compound 23] gave an MIC-S in assay [1] of 56 µg/mL (≈ 88.6 µM). In assay [2], the MIC-R came out at 9.8 µg/mL (≈ 15.5 µM).

For the compound `CCCCCCCCCCNC(=O)C(NC(=O)C(N)Cc1c[nH]c2ccc(O)cc12)C1OC(n2ccc(=O)[nH]c2=O)C(O)C1O` (centres unmarked) [Compound 13], the MIC-S in assay [1] turned out to be 388 µg/mL (≈ 617 µM). This compound also came in with an MIC-R in assay [2] of 181 µg/mL (≈ 288 µM).

For `CCCCCCCCCCCCNC(=O)C(NC(=O)C(N)CCc1ccc2ccccc2n1)C1OC(n2ccc(=O)[nH]c2=O)C(O)C1O` (centres unmarked) [Compound 17], the MIC-S in assay [1] (listed as drawing 73) stood at 158 µg/mL (≈ 237 µM). In addition, in assay [2] (listed as drawing 73), the MIC-R is 21 µg/mL (≈ 31.5 µM).

`NC(Cc1c[nH]c2ccc(O)cc12)C(=O)NC(C(=O)NCc1ccccc1)C1OC(n2ccc(=O)[nH]c2=O)C(O)C1O` (centres unmarked) [Compound 20] had an MIC-S in assay [1] of over 256 µg/mL. The compound also gave an MIC-R in assay [2] of over 256 µg/mL.

The compound `CCCCCCCCCCCCN(O)C(=O)C(NC(=O)C(N)Cc1c[nH]c2ccc(O)cc12)C1OC(n2ccc(=O)[nH]c2=O)C(O)C1O` (centres unmarked) [Compound 18] displayed an MIC-S in assay [1] of 239 µg/mL (≈ 355 µM). Moreover, the MIC-R in assay [2] amounted to 39 µg/mL (≈ 58 µM).

The compound `CCCCCCCCCCCCNC(=O)C(NC(=O)C(N)C(C)Cc1ccc(O)cn1)C1OC(n2ccc(=O)[nH]c2=O)C(O)C1O` (centres unmarked) [Compound 10] had an MIC-S in assay [1] of 478 µg/mL (≈ 739 µM). Further, in assay [2], the MIC-R worked out at 147 µg/mL (≈ 227 µM).

For `CC(C)=CCCC(C)=CCCC(C)=CCNC(=O)C(NC(=O)C(N)Cc1c[nH]c2ccc(O)cc12)C1OC(n2ccc(=O)[nH]c2=O)C(O)C1O` (centres unmarked) [Compound 15], the MIC-S in assay [1] is 362 µg/mL (≈ 523 µM). The compound also displayed an MIC-R in assay [2] of 143 µg/mL (≈ 206 µM).

Compound `CCCCCCCCCCCCNC(=O)C(NC(=O)C(N)Cc1csc2ccc(O)cc12)C1OC(n2ccc(=O)[nH]c2=O)C(O)C1O` (single isomer, unassigned) [Compound 22] displayed an MIC-S in assay [1] of 158 µg/mL (≈ 234 µM). This compound also had an MIC-R in assay [2] (listed as drawing 80) of over 256 µg/mL.
